Experimental data from EP0676203A1, “Pharmaceutical compositions of antiglucocorticoid compounds for treating or preventing symptoms of spontaneous or narcotic-induced withdrawal” (ROUSSEL UCLAF, priority 1994, dated 1995).
Values joined by “and” are separate entries in the source; they are usually repeats but may differ in a detail not shown here. Equal values may be shown once.

Tests used:
[1] = test system: souris dépendantes à la morphine; assay: Naloxone-precipitated withdrawal syndrome (jumping) in morphine-treated mice, repeated 4-day oral treatment; format: in vivo
Description: (§1) Les expériences ont été réalisées chez des souris mâles Swiss normales ou surrénalectomisées (Charles River, France) d'un poids corporel compris entre 20 et 25 g. Durant les essais, les animaux ont eu libre accès à la nourriture et à l'eau de boisson. Le nombre d'animaux par groupe est de 10 à 13 souris.
(§2) Les antiglucocorticoïdes : • AG1 (17β-hydroxy 11β-(4-diméthylaminophényl) 17α-(prop-1-ynyl) estra 4,9-dièn-3-one), • AG2 (17β-hydroxy 10β-[(4-méthylphényl) méthyl] 17α-(prop-1-ynyl) estra 4,9-dièn-3-one), • AG3 (γ-lactone de l'acide 17β-hydroxy 11β-(4-diméthylaminophényl) 21-méthylène 3-oxo 19-nor 17α-(pregna 4,9-dièn-21-carboxylique) • AG4 10β-benzyl 17β-hydroxy 17α-(prop-1-ynyl) estra 4,9(11)-dièn-3-one • AG5 11β-[4-(diméthylamino) phényl] 17α-hydroxy 17β-(3-hydroxypropyl) 13α-méthyl gona-4,9-dièn-3-one (onapristone) • AG6 11β-[4-(diméthylamino) phényl] 17β-hydroxy 17α-(3-hydroxy-1-propényl) estra-4,9-dièn-3-one (lilopristone) • AG7 17α-acétoxy 11β-[4-(diméthylamino) phényl] 19-nor pregna 4,9-dièn-3,20-dione • et l'antiprogestérone AP1 (17R 11β-[4-(méthylthio) phényl] spiro (estra-4,9-dièn-17,2'(5'H) furan) 3-one décrit dans WO 87/05908 ex. 3) ont été mis en suspension dans de la méthyl cellusose à 0,5 % et administrés par voie orale (p.o). La morphine a été mise en solution dans du sérum physiologique et administrée par voie sous-cutanée (s.c). Enfin, le chlorhydrate de naloxone a été solubilisé dans de l'eau distillée et injecté par voie intra-péritonéale.
Tous les produits ont été administrées à l'animal sous un volume de 25 ml/kg.
Le premier jour (J1), les animaux ont reçu 5 injections sous-cutanées avec des doses croissantes de morphine réparties dans la matinée et sur le début de l'après midi, à une heure d'intervalle. Les 3 jours suivants (J2, J3, J4), ces mêmes animaux ont été traités le matin par deux administrations de la dose maximale utilisée au jour 1.
Les antiglucocorticoïdes AG1, AG2, AG3, AG4 et AG5 ont été administrées à la dose de 100 mg/kg par voie orale sous forme d'un traitement quotidient effectué 2 heures avant l'administration de morphine et ceci durant 4 jours.
La technique utilisée s'inspire de celle décrite par Way et al. J. Pharmacol. Exp. Ther. (1969), 167 : 1-8 et Huidobro et Maggiolo Acta Physiol. Pharmacol. Latinoam. (1961), 11 : 201-9. Ainsi, l'administration réitérée d'un morphinique induit un phénomène de dépendance physique qui peut être facilement mis en évidence par la précipitation d'un syndrome de sevrage à l'aide d'un antagoniste opiacé tel que la naloxone. Ce syndrome se manifeste, chez la souris sous la forme d'un comportement stéréotypé caractérisé par l'apparition de sauts répétitifs dont le nombre est en relation avec la durée et l'intensité du traitement par le morphinique.
Le sevrage des animaux a été réalisé le quatrième jour; trois heures après le dernier traitement, à l'aide de chlorhydrate de naloxone injecté par voie intrapéritonéale à la dose de 100 mg/kg. Immédiatement après cette injection, les animaux ont été placés individuellement dans des cylindres en plexiglass (hauteur = 40 cm, diamètre = 20 cm). Le nombre de sauts consécutifs au sevrage et effectués par chaque animal a été compté durant une période de 10 minutes.
Les résultats qui figurent dans les tableaux représentent les moyennes des valeurs individuelles assorties de l'erreur standard à la moyenne (m ± esm).

[2] = test system: souris dépendantes à la morphine; assay: Naloxone-precipitated withdrawal syndrome (jumping) in morphine-treated mice, acute oral treatment 24 h before withdrawal; format: in vivo; settings: result in words; 100 mg/kg p.o single dose 24 h before naloxone
Description: as §1
as §2, with “Enfin, le chlorhydrate de naloxone a été solubilisé dans de l'eau distillée et injecté par voie intra-péritonéale.” left out

[3] = Morphine 799 mg/kg s.c (cumulated over 4 days) + compound 4 x 100 mg/kg p.o, naloxone 100 mg/kg ip, normal mice
[4] = compound alone, 4 x 100 mg/kg p.o, no morphine, naloxone 100 mg/kg ip on day 4, normal mice

Structure (SMILES)	Nombre de sauts/10 minutes (m ± esm) [1, 3]	Nombre de sauts/10 minutes (m ± esm) [1, 4]	effet sur le syndrome de sevrage morphinique [2]	Nombre de sauts/10 minutes (m ± esm) ([1]; in vivo)
CC#C[C@]1(O)CC[C@H]2[C@@H]3CCC4=CC(=O)CCC4=C3[C@@H](c3ccc(N(C)C)cc3)C[C@@]21C [AG1, 17β-hydroxy 11β-(4-diméthylaminophényl) 17α-(prop-1-ynyl) estra 4,9-dièn-3-one]	68 ± 12 sauts/10 minutes	0 sauts/10 minutes	–	–
CC#CC1(O)CCC2C3CCC4=CC(=O)CCC4(Cc4ccc(C)cc4)C3=CCC21C (stereo not drawn) [AG2, 17β-hydroxy 10β-[(4-méthylphényl)méthyl] 17α-(prop-1-ynyl) estra 4,9-dièn-3-one]	79 ± 9 sauts/10 minutes	0 sauts/10 minutes	inactive	–
C=C1C[C@@]2(CC[C@H]3[C@@H]4CCC5=CC(=O)CCC5=C4[C@@H](c4ccc(N(C)C)cc4)C[C@@]32C)OC1=O [AG3]	66 ± 7 sauts/10 minutes	3 ± 2 sauts/10 minutes	–	–
CC#CC1(O)CCC2C3CCC4=CC(=O)CCC4(Cc4ccccc4)C3=CCC21C (stereo not drawn) [AG4, 10β-benzyl 17β-hydroxy 17α-(prop-1-ynyl) estra 4,9(11)-dièn-3-one]	72 ± 7 sauts/10 minutes	1 ± 1 sauts/10 minutes	–	–
CN(C)c1ccc([C@H]2C[C@]3(C)[C@@H](CC[C@]3(O)CCCO)[C@@H]3CCC4=CC(=O)CCC4=C32)cc1 [AG5, 11β-[4-(diméthylamino)phényl] 17α-hydroxy 17β-(3-hydroxypropyl) 13α-méthyl gona-4,9-dièn-3-one]	68 ± 12 sauts/10 minutes	1 ± 1 sauts/10 minutes	–	–
CSc1ccc([C@H]2C[C@@]3(C)[C@@H](CC[C@@]34C=CCO4)[C@@H]3CCC4=CC(=O)CCC4=C32)cc1 [AP1, 17R 11β-[4-(méthylthio)phényl] spiro (estra-4,9-dièn-17,2'(5'H)furan) 3-one, reference compound]	–	–	n'a pas modifié de façon significative	–
CN1CC[C@]23c4c5ccc(O)c4O[C@H]2[C@@H](O)C=C[C@H]3[C@H]1C5 [Morphine, morphine, reference compound]	–	–	–	115 ± 21 sauts/10 minutes and 97 ± 13 sauts/10 minutes and 117 ± 14 sauts/10 minutes and 103 ± 10 sauts/10 minutes
